Results reported in patent US20060224077A1, “Analysis of a skin reactivity and hypersensitivity” (priority 2002, published 2006).

Tested on: maxillary nerve (V2, sensory)
Test: Action potential of the maxillary nerve in response to electrical stimulation at face level, recorded non-invasively in vivo
Set-up: species or system human
Details: cream containing 0.75% capsaicin, 2 mg/cm^2 on a 2×4 mm skin zone immediately above the upper lip; 5 minutes after application; versus before application
Text: The process according to the invention which uses the electrogenesis of the nerves and/or the brain is characterized in that: • two non-invasive electrodes (1,1′) are applied, at least one of the two electrodes being applied to a specific point of the zone of the skin to be analyzed, the measuring point, in order to detect the electrical activity of the nerves of the skin and/or the subcutaneous nerves at that point or even the electrical activity of the brain. These electrodes are associated with a circuit for evaluating the signals detected by the electrodes, this evaluation circuit comprising amplifying elements (2, 2′, 3), processing elements (7) and recording elements for the signals and also a microprocessor (8), • the skin zone to be analyzed is exposed to a stimulation, more particularly an electrical stimulation, and • the changes in the electrical signals detected by the electrodes driven by the stimulation as a function of time are analyzed over a certain period. […]
FIG. 8 compares the variations in the action potential of the maxillary nerve (V2, sensory) in response to an electrical stimulation at face level before and immediately after the topical application of xylocaine (5%). […] A cream containing 0.75% capsaicin was used for this purpose and was applied in a quantity of 2 mg/cm^2 to a 2×4 mm skin zone immediately above the upper lip. […]

`COc1cc(CNC(=O)CCCC/C=C/C(C)C)ccc1O` [capsaicin] was tested, and the “increase of the amplitude of the nerve potential after application” value was 75%.
